Test system: canine oral microbiome
Assay: Controlled clinical study in beagles: oral swab sequencing of the canine oral microbiome
Format: in vivo, dog (beagles)
Conditions: 14 beagles, arginine powder mixture (1.5% L-arginine) twice daily after meals, 28 days post dental cleaning, oral swabs, global sequencing
Method: In vitro and in vivo studies were required to assert the activity of arginine in oral care of domestic animals. […] Controlled clinical studies were performed in 14 beagles fed an arginine powder mixture (Table 2) twice daily after meals. Dental assessments were performed using photographic inspection after the application of a biofilm disclosing agent. Animals were fed the mixture for 28 days prior to final assessment. Oral swab samples were collected at days 0, 7, 14 and 28 and subjected to global sequencing studies.
In this study bacterial populations were clustered and plotted in separate figures. Data was obtained after 28 days of treatment post dental cleaning.

SMILES: N=C(N)NCCC[C@H](N)C(=O)O [arginine, L-arginine]
- relative abundance of oral bacterial populations, treated vs control animals: shift towards healthy oral bacterial populations
